In assay [1] the test system is Zymoseptoria tritici. Description: Fungicidal activity: leaf blotch of wheat (SEPTTR), wheat seedlings, booth sprayer to run-off or track spray. The conditions noted are these: for pest or weed control at 100 ppm: High-Volume Cereal Activity at 100 ppm; for pest or weed control at 121.5 g/ha: Low-Volume Cereal Activity at 121.5 g/H. It is filed as in vivo. The method, then: All fungicides were evaluated using the aforementioned method for their activity vs. all target diseases. Wheat leaf blotch and brown rust activity were also evaluated using track spray applications, in which case the fungicides were formulated as EC formulations, containing 0.1% Trycol 5941 in the spray solutions. Wheat plants (variety Yuma) were grown from seed in a greenhouse in 50% mineral soil/50% soil-less Metro mix until the first leaf was fully emerged, with 7-10 seedlings per pot. These plants were inoculated with an aqueous spore suspension of Zymoseptoria tritici either prior to or after fungicide treatments. After inoculation the plants were kept in 100% relative humidity (one day in a dark dew chamber followed by two to three days in a lighted dew chamber at 20° C.) to permit spores to germinate and infect the leaf. The plants were then transferred to a greenhouse set at 20° C. for disease to develop. When disease symptoms were fully expressed on the 1st leaves of untreated plants, infection levels were assessed on a scale of 0 to 100 percent disease severity. Percent disease control was calculated using the ratio of disease severity on treated plants relative to untreated plants.

The subject of assay [2] is Puccinia triticina. Nature of the assay: Fungicidal activity: wheat brown rust (PUCCRT), wheat seedlings, booth sprayer to run-off or track spray. The format is in vivo. The conditions noted are these: for pest or weed control at 100 ppm: High-Volume Cereal Activity at 100 ppm; for pest or weed control at 121.5 g/ha: Low-Volume Cereal Activity at 121.5 g/H. The method, then:
All fungicides were evaluated using the aforementioned method for their activity vs. all target diseases. Wheat leaf blotch and brown rust activity were also evaluated using track spray applications, in which case the fungicides were formulated as EC formulations, containing 0.1% Trycol 5941 in the spray solutions. Wheat plants (variety Yuma) were grown from seed in a greenhouse in 50% mineral soil/50% soil-less Metro mix until the first leaf was fully emerged, with 7-10 seedlings per pot. These plants were inoculated with an aqueous spore suspension of Puccinia triticina either prior to or after fungicide treatments. […] The plants were then transferred to a greenhouse set at 24° C. for disease to develop. Fungicide formulation, application and disease assessment followed the procedures as described in the Example A.

Where [3] appears, read: 24 h, 1 Day Protectant, read-out: SEPTTR 1DP.
Where [4] appears, read: 3DC (Day Curative), read-out: SEPTTR 3DC.
Setting [5] is: 24 h, 1 Day Protectant, read-out: PUCCRT 1DP.
[6] abbreviates: 3DC (Day Curative), read-out: PUCCRT 3DC.
The mark [7] stands for this setting: 72 h, 3 Day Curative, read-out: PUCCRT 3DC.

Structures are written as SMILES. Like-named read-outs stand apart in the source and are kept apart here.

On to `CCCO[C@@H](CC)[C@@H](Cc1ccccc1)[C@H](C)OC(=O)[C@H](C)NC(=O)c1nccc(OC)c1O` [compound 91], for which the pest or weed control at 100 ppm in assay [1] (setting [3]) fell in the range of 0 to 80%; in assay [1] (setting [4]), 80 to 100%; in assay [2] (setting [5]), 80 to 100%; in assay [2] (setting [6]), 80 to 100%.

For the molecule `CCCO[C@H](CC)[C@@H](Cc1ccccc1)[C@H](C)OC(=O)[C@H](C)NC(=O)c1nccc(OC)c1O` [compound 92], the pest or weed control at 100 ppm in assay [1] (setting [3]), in assay [1] (setting [4]), in assay [2] (setting [5]) and in assay [2] (setting [6]) was 80 to 100% in each case.

For the molecule `CCCOC[C@@H](Cc1ccccc1)[C@H](C)OC(=O)[C@H](C)NC(=O)c1nccc(OC)c1O` [compound 93], the pest or weed control at 100 ppm was in the range of 0 to 80% in assay [1] (setting [3]), 80 to 100% in assay [1] (setting [4]), 80 to 100% in assay [2] (setting [5]) and 80 to 100% in assay [2] (setting [6]).

`CCCO[C@@H](CC)[C@@H](Cc1ccccc1)[C@H](C)OC(=O)[C@@H](C)NC(=O)c1nccc(OC)c1O` [compound 94]: the pest or weed control at 100 ppm in assay [1] (setting [3]) lay in the range of 0 to 80%; in assay [1] (setting [4]), 0 to 80%; in assay [2] (setting [5]) it was 80 to 100%; in assay [2] (setting [6]), 80 to 100%.

Consider `CCCO[C@@H](CC)[C@@H](Cc1ccccc1)[C@H](C)OC(=O)[C@H](CC)NC(=O)c1nccc(OC)c1O` [compound 95], for which the pest or weed control at 100 ppm in assay [1] (setting [3]) was in the range of 0 to 80%; in assay [1] (setting [4]), 0 to 80%; in assay [2] (setting [5]), 80 to 100%; in assay [2] (setting [6]), 80 to 100%.

On to `CCCO[C@H](CC)[C@@H](Cc1ccccc1)[C@H](C)OC(=O)[C@@H](C)NC(=O)c1nccc(OC)c1O` [compound 96], for which the pest or weed control at 100 ppm was in the range of 80 to 100% in assay [1] (setting [3]), 0 to 80% in assay [1] (setting [4]), 80 to 100% in assay [2] (setting [5]) and 80 to 100% in assay [2] (setting [6]).

Take `CCCOC[C@@H](Cc1ccccc1)[C@H](C)OC(=O)[C@@H](C)NC(=O)c1nccc(OC)c1O` [compound 97]: the pest or weed control at 100 ppm in assay [1] (setting [3]), in assay [1] (setting [4]), in assay [2] (setting [5]) and in assay [2] (setting [6]) was 0 to 80% throughout.

On to `CCCOC[C@@H](Cc1ccccc1)[C@H](C)OC(=O)[C@H](CC)NC(=O)c1nccc(OC)c1O` [compound 98], for which the pest or weed control at 100 ppm in assay [1] (setting [3]), in assay [1] (setting [4]), in assay [2] (setting [5]) and in assay [2] (setting [6]) was 80 to 100% in each case.

For `CCCOC[C@@H](Cc1ccccc1)[C@H](C)OC(=O)C(C)(C)NC(=O)c1nccc(OC)c1O` [compound 99], the pest or weed control at 100 ppm in assay [1] (setting [4]), in assay [2] (setting [5]) and in assay [2] (setting [6]) was 0 to 80% in each case.

On to `CCCO[C@@H](CC)[C@@H](Cc1ccccc1)[C@H](C)OC(=O)C(C)(C)NC(=O)c1nccc(OC)c1O` [compound 100], for which the pest or weed control at 100 ppm in assay [1] (setting [4]) and in assay [2] (setting [5]) was 0 to 80% throughout.

On to `CC[C@H](CCCc1ccccc1)[C@@H](CC(C)C)[C@H](C)OC(=O)C(C)NC(=O)c1nccc(OC)c1O` (stereo partly shown) [compound 101], for which the figures for the pest or weed control at 100 ppm in assay [1] (setting [3]), in assay [2] (setting [5]) and in assay [2] (setting [6]) were 80 to 100%, 80 to 100% and 0 to 80%, respectively.

As for `CC[C@H](CC1CC1)[C@@H](Cc1ccccc1)[C@H](C)OC(=O)[C@H](C)NC(=O)c1nccc(OC)c1O` [compound 102], the pest or weed control at 100 ppm was 0 to 80% in assay [1] (setting [3]), 80 to 100% in assay [1] (setting [4]), 80 to 100% in assay [2] (setting [5]) and 80 to 100% in assay [2] (setting [6]).

`CC[C@H](Cc1ccccc1)[C@@H](Cc1ccc(F)cc1)[C@H](C)OC(=O)[C@H](C)NC(=O)c1nccc(OC)c1O` [compound 103]: the pest or weed control at 100 ppm lay in the range of 80 to 100% in assay [1] (setting [3]), 0 to 80% in assay [1] (setting [4]), 80 to 100% in assay [2] (setting [5]) and 0 to 80% in assay [2] (setting [6]).

On to `CCCOC[C@@H](Cc1ccccc1)[C@H](C)OC(=O)CNC(=O)c1nccc(OC)c1O` [compound 104], for which the pest or weed control at 100 ppm in assay [1] (setting [4]) and in assay [2] (setting [6]) was 0 to 80% throughout.

For the molecule `CCOC[C@H](Oc1ccc(C)cc1)[C@@H](Cc1ccc(F)cc1)[C@H](C)OC(=O)[C@H](C)NC(=O)c1nccc(OC)c1O` [compound 105], the pest or weed control at 100 ppm was 0 to 80% in assay [1] (setting [3]), 0 to 80% in assay [1] (setting [4]), 80 to 100% in assay [2] (setting [5]) and 0 to 80% in assay [2] (setting [6]).

In the case of `CCCOC[C@@H](Cc1ccccc1)[C@H](C)OC(=O)C(COC)NC(=O)c1nccc(OC)c1O` (stereo partly shown) [compound 106], the pest or weed control at 100 ppm in assay [1] (setting [4]), in assay [2] (setting [5]) and in assay [2] (setting [6]) was 0 to 80% in each case.

Turning to `C=C[C@H](Cc1ccc(C(F)(F)F)cc1)[C@@H](Cc1ccc(F)cc1)[C@H](C)OC(=O)[C@H](COC)NC(=O)c1nccc(OC)c1O` [compound 107], the pest or weed control at 100 ppm in assay [2] (setting [5]) was in the range of 0 to 80%.

`C=C[C@H](Cc1ccc(C(F)(F)F)cc1)[C@@H](Cc1ccc(F)cc1)[C@H](C)OC(=O)[C@H](C)NC(=O)c1nccc(OC)c1O` [compound 108]: the pest or weed control at 100 ppm was in the range of 0 to 80% in assay [1] (setting [4]) and 80 to 100% in assay [2] (setting [5]).

In the case of `C=C[C@H](Cc1ccc(C(F)(F)F)cc1)[C@@H](Cc1ccc(F)cc1)[C@H](C)OC(=O)CNC(=O)c1nccc(OC)c1O` [compound 109], the pest or weed control at 100 ppm in assay [2] (setting [5]) was 0 to 80%.

In the case of `CC[C@H](Cc1ccc(C(F)(F)F)cc1)[C@@H](Cc1ccc(F)cc1)[C@H](C)OC(=O)[C@H](COC)NC(=O)c1nccc(OC)c1O` [compound 110], the pest or weed control at 100 ppm in assay [2] (setting [5]) was in the range of 80 to 100%.

In the case of `CC[C@H](Cc1ccccc1)[C@@H](Cc1ccc(OC(F)(F)F)cc1)[C@H](C)OC(=O)[C@H](C)NC(=O)c1nccc(OC)c1O` [compound 112], the pest or weed control at 100 ppm in assay [1] (setting [3]) and in assay [2] (setting [5]) was 0 to 80% in each case.

As to `CCC[C@@H](Cc1ccccc1)[C@H](C)OC(=O)[C@H](C)NC(=O)c1nccc(OC)c1O` [compound 113], the pest or weed control at 100 ppm in assay [1] (setting [3]) lay within 0 to 80%; in assay [1] (setting [4]) it was 80 to 100%; in assay [2] (setting [5]), 80 to 100%; in assay [2] (setting [6]), 80 to 100%.

For the molecule `COC(=O)[C@@H](Cc1ccccc1)[C@H](C)OC(=O)[C@H](C)NC(=O)c1nccc(OC)c1O` [compound 114], the pest or weed control at 100 ppm in assay [1] (setting [4]), in assay [2] (setting [5]) and in assay [2] (setting [6]) was 0 to 80% in each case.

As to `COc1ccnc(C(=O)N[C@@H](C)C(=O)O[C@@H](C)[C@H](Cc2ccccc2)c2ccccc2)c1O` [compound 119], the pest or weed control at 100 ppm in assay [1] (setting [4]) lay within 0 to 80%.

For `COc1ccnc(C(=O)N[C@@H](C)C(=O)O[C@@H](C)[C@H](Cc2ccccc2)C(C)C)c1O` [compound 122], the pest or weed control at 100 ppm in assay [2] (setting [5]) was 0 to 80%.

Take `COc1cccc(CC(Cc2cccc(OC)c2)[C@H](C)OC(=O)[C@H](C)NC(=O)c2nccc(OC)c2O)c1` [compound 152]: the values for the pest or weed control at 100 ppm in assay [2] (setting [5]) and in assay [2] (setting [6]) were 80 to 100% and 0 to 80%, respectively.

On to `CCCOC[C@@H](Cc1ccccc1)[C@H](C)OC(=O)CNC(=O)c1nccc(OC)c1OC(C)=O` [compound 176], for which the pest or weed control at 121.5 g/ha was in the range of 80 to 100% in assay [2] (setting [5]) and 0 to 80% in assay [2] (setting [7]).

`CC[C@H](Cc1ccc(C(F)(F)F)cc1)[C@@H](Cc1ccc(F)cc1)[C@H](C)OC(=O)[C@H](C)NC(=O)c1nccc(OC)c1OC(C)=O` [compound 182]: the pest or weed control at 121.5 g/ha in assay [2] (setting [5]) and in assay [2] (setting [7]) was 0 to 80% in each case.

For the molecule `CC[C@H](Cc1ccc(C(F)(F)F)cc1)[C@@H](Cc1ccc(F)cc1)[C@H](C)OC(=O)CNC(=O)c1nccc(OC)c1OC(C)=O` [compound 183], the pest or weed control at 121.5 g/ha in assay [2] (setting [5]) was in the range of 0 to 80%.

Take `COC(=O)[C@@H](Cc1ccccc1)[C@H](C)OC(=O)[C@H](C)NC(=O)c1nccc(OC)c1OC(C)=O` [compound 186]: the pest or weed control at 121.5 g/ha in assay [1] (setting [3]) lay in the range of 0 to 80%.

With `COc1ccnc(C(=O)N[C@@H](C)C(=O)O[C@@H](C)[C@H](Cc2ccc(Cl)c(Cl)c2)c2ccccc2)c1OC(=O)C(C)C` [compound 217], the pest or weed control at 121.5 g/ha in assay [1] (setting [3]) fell in the range of 0 to 80%; in assay [1] (72 h, 3 Day Curative, read-out: SEPTTR 3DC) it was 0 to 80%.

With `CCCOC[C@@H](Cc1ccc(OC)cc1)[C@H](C)OC(=O)[C@H](C)NC(=O)c1nccc(OC)c1OCOC(C)=O` [compound 256], the pest or weed control at 121.5 g/ha in assay [2] (setting [5]) and in assay [2] (setting [7]) was 80 to 100% throughout.

Values taken from US10173971B2, “Picolinamides with fungicidal activity” (DOW AGROSCIENCES LLC, priority 2014, dated 2019).
